Data as given in PMC11618697 (Nature Communications, 2024).
Residues, ends and D or L forms follow the SMILES beside them. *: point of attachment. Cbz = O=C(OCc1ccccc1)*

How the values were obtained:
Hut78 cells [1] = test: Cell proliferation assays; assay type: cell-based, human
[2] = tested on: CD25, CD5 and CD7 on HH and Hut78 cells; test: Flow cytometry of CD25, CD5 and CD7; assay type: cell-based, human; conditions: 2 µM, 48 hours
[3] = tested on: Foxp3 in HH and Hut78 cells; test: Intracellular staining of Foxp3; assay type: cell-based, human; conditions: 1 µM, 48 h
human CD25 = test: IHC staining of human CD25 in Hut78 xenograft tumors; assay type: in vivo, NSG mice
Hut78 cells [4] = test: IC50 assay, trypan blue exclusion count; assay type: cell-based, human
HH cells [5] = test: Candidate PROTACs, cell viability by CCK8; assay type: cell-based, human; conditions: CCK8 (Fig 3c)
HH cells [6] = test: IC50 assay, trypan blue exclusion count; assay type: cell-based; conditions: Homo sapiens, 48 h
293T cells = test: Viability of normal cells, trypan blue; assay type: cell-based, human
CDK9 [7] = molecular target: T1, CDK9 (Homo sapiens, UniProt P50750); test: Western blot of CDK9 in Hut78 cells; assay type: cell-based; conditions: for degradation of CDK9 (immunoblot): Hut78 cells
T1 sequence (P50750 whole entry): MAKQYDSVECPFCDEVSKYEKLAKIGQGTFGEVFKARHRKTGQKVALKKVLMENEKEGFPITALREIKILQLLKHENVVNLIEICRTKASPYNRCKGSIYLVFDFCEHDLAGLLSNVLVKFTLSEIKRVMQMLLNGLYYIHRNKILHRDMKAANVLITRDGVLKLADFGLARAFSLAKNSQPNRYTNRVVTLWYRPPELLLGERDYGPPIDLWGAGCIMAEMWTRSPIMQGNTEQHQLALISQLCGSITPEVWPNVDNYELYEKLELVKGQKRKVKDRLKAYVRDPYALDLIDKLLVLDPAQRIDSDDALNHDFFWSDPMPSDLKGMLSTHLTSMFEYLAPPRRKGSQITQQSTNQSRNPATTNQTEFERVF

CDK2, CDK6 and CDK7 = test: Western blot of other CDKs in Hut78 cells; assay type: cell-based, human
CDK9 [8] = molecular target: T1, CDK9; test: DC50; assay type: cell-based; conditions: CDK9 in Hut78 cells; 10 h
[9] = tested on: CDK9 (55 kDa) and CDK9 (42 kDa) mRNA; test: Q-PCR of CDK9 isoforms in Hut78 cells; assay type: cell-based, human
Hut78 xenografts = test: Hut78 cell line derived xenograft in NSG mice; assay type: in vivo
Hut78 cell proteins = test: Quantitative MS-based proteomics of Hut78 cells; assay type: cell-based, human
CDK9 [10] = molecular target: T1, CDK9; test: IHC staining of human CDK9 in Hut78 xenograft tumors; assay type: in vivo, NSG mice; conditions: intraperitoneal injection
HH tumors = test: HH cell line derived xenograft in nude mice; assay type: in vivo
RARA mRNA = test: Q-PCR of RARA in Hut78 cells; assay type: cell-based, human
RARα = test: Western blot of RARα in Hut78 cells; assay type: cell-based, human
CDK9 [11] = molecular target: T1, CDK9; assay type: cell-based; conditions: Hut78; 10 μM for 2 h prior to 6-h of GT-02897 (100 nM)
CDK9 [12] = molecular target: T1, CDK9; test: Western blot of CDK9 in MOLT-4 cells; assay type: cell-based; conditions: MOLT-4 acute lymphoblastic leukemia cell line
CDK9 [13] = test: Western blot of CDK9 in HH cells; conditions: HH cells (Fig 3b)
Hut78 cells [14] = test: Cell viability / cell death at fixed dose, trypan blue; conditions: 250 nM, trypan blue (Supplementary Fig 4a)

## CC1=C(/C=C/C(C)=C/C=C/C(C)=C/C(=O)O)C(C)(C)CCC1 [ATRA, all-trans retinoic acid]
Hut78 cells [1]; CTCL cells (Hut78, Fig 7g)
  CTCL cell growth and apoptosis: significant inhibition of cell growth without cell apoptosis
Hut78 cells [1]; Hut78 infected with shCDK9
  cell growth of shCDK9-infected Hut78 cells: more pronounced inhibition of cell growth
[2]
  CD5 and CD7 level (flow cytometry): unchanged
  CD25 expression (flow cytometry): emerging expression of CD25
[3]
  Expression of Foxp3: not changed
Human CD25
  CD25 expression in isolated tumor tissues (IHC): in vivo upregulation of CD25 expression

## CC(C)(C)c1cnc(CSc2cnc(NC(=O)C3CCN(C(=O)CCCSc4cccc5c4C(=O)N(C4CCC(=O)NC4=O)C5=O)CC3)s2)o1 (centres unmarked) [Compound 9, N-(5-(((5-(tert-butyl)oxazol-2-yl)methyl)thio)thiazol-2-yl)-1-(4-((2-(2,6-dioxopiperidin-3-yl)-1,3-dioxoisoindolin-4-yl)thio)butanoyl)piperidine-4-carboxamide]
Hut78 cells [4]; Homo sapiens, HuT78, 48 h
  IC50: 339 nM
HH cells [5]
  concentration displaying significant killing effects: below 500 nM

## CC(C)(C)c1cnc(CSc2cnc(NC(=O)C3CCN(C(=O)COCCOCCSc4cccc5c4C(=O)N(C4CCC(=O)NC4=O)C5=O)CC3)s2)o1 (centres unmarked) [Compound 19, N-(5-(((5-(tert-butyl)oxazol-2-yl)methyl)thio)thiazol-2-yl)-1-(2-(2-(2-((2-(2,6-dioxopiperidin-3-yl)-1,3-dioxoisoindolin-4-yl)thio)ethoxy)ethoxy)acetyl)piperidine-4-carboxamide]
Hut78 cells [4]; Homo sapiens, HuT78, 48 h
  IC50: 404 nM
HH cells [5]
  concentration displaying significant killing effects: below 500 nM

## CC(C)(C)c1cnc(CSc2cnc(NC(=O)C3CCN(CCCCCSc4cccc5c4CN(C4CCC(=O)NC4=O)C5=O)CC3)s2)o1 (centres unmarked) [Compound 23, N-(5-(((5-(tert-butyl)oxazol-2-yl)methyl)thio)thiazol-2-yl)-1-(5-((2-(2,6-dioxopiperidin-3-yl)-1-oxoisoindolin-4-yl)thio)pentyl)piperidine-4-carboxamide]
Hut78 cells [4]; Homo sapiens, HuT78, 48 h
  IC50: 49.7 nM
HH cells [6]
  IC50: 66.2 nM
293T cells
  killing effects on 293T cell: minimal killing effects
CDK9 [7]
  degradation of CDK9 (immunoblot): strong degradation of CDK9
CDK2, CDK6 and CDK7
  protein levels of CDK2, CDK6 and CDK7 (immunoblot): without interfering protein levels of CDK2, CDK6 and CDK7
CDK9 [8]
  DC50: 2.85 nM
[9]
  mRNA expression of CDK9 (42 kDa) and CDK9 (55 kDa) isoforms: not affected
Hut78 xenografts; Hut78 xenograft
  CTCL tumors in vivo, co-administration with ATRA: more significant inhibition of CTCL tumors in vivo
Hut78 xenografts; every other day, intraperitoneal or subcutaneous injection, 14 days
  Hut78 cell growth in vivo: significantly suppress Hut78 cell growth in vivo
Hut78 xenografts; shCDK9-1 or shCDK9-2
  growth inhibition effect in CDK9-depleted (shRNA) Hut78 xenografts: significantly impaired the growth inhibition effect of GT-02897
Hut78 cell proteins; 6 h after treatment, 5,689 proteins
  CDK9 abundance in quantitative proteomics: one of the most significantly downregulated proteins
Hut78 cell proteins; proteomics 12 hours, validated by western blot
  RARα protein: significantly upregulated
Hut78 cells [1]; Hut78, in vitro, cell number by trypan blue
  inhibition of CTCL cells, co-administration with ATRA: more significant inhibition of CTCL cells
CDK9 [10]
  CDK9 in isolated tumor tissues (IHC): in vivo degradation of CDK9 by GT-02897 was further confirmed

## CC(C)(C)c1cnc(CSc2cnc(NC(=O)C3CCN(CCCCCCCCSc4cccc5c4CN(C4CCC(=O)NC4=O)C5=O)CC3)s2)o1 (centres unmarked) [Compound 24, N-(5-(((5-(tert-butyl)oxazol-2-yl)methyl)thio)thiazol-2-yl)-1-(8-((2-(2,6-dioxopiperidin-3-yl)-1-oxoisoindolin-4-yl)thio)octyl)piperidine-4-carboxamide]
CDK9 [7]
  degradation of CDK9 (immunoblot): strong degradation of CDK9
CDK2, CDK6 and CDK7
  protein levels of CDK2, CDK6 and CDK7 (immunoblot): without interfering protein levels of CDK2, CDK6 and CDK7

## CC(C)(C)c1cnc(CSc2cnc(NC(=O)C3CCN(CCCCSc4cccc5c4C(=O)N(C4CCC(=O)NC4=O)C5=O)CC3)s2)o1 (centres unmarked) [Compound 25, N-(5-(((5-(tert-butyl)oxazol-2-yl)methyl)thio)thiazol-2-yl)-1-(4-((2-(2,6-dioxopiperidin-3-yl)-1,3-dioxoisoindolin-4-yl)thio)butyl)piperidine-4-carboxamide]
Hut78 cells [4]; Homo sapiens, HuT78, 48 h
  IC50: 50 to 165 nM
CDK9 [7]
  degradation of CDK9 (immunoblot): strong degradation of CDK9
CDK2, CDK6 and CDK7
  protein levels of CDK2, CDK6 and CDK7 (immunoblot): without interfering protein levels of CDK2, CDK6 and CDK7

## CC(C)(C)c1cnc(CSc2cnc(NC(=O)C3CCN(CCCCCCCSc4cccc5c4C(=O)N(C4CCC(=O)NC4=O)C5=O)CC3)s2)o1 (centres unmarked) [Compound 26, N-(5-(((5-(tert-butyl)oxazol-2-yl)methyl)thio)thiazol-2-yl)-1-(7-((2-(2,6-dioxopiperidin-3-yl)-1,3-dioxoisoindolin-4-yl)thio)heptyl)piperidine-4-carboxamide]
Hut78 cells [4]; Homo sapiens, HuT78, 48 h
  IC50: 50 to 165 nM
CDK9 [7]
  degradation of CDK9 (immunoblot): strong degradation of CDK9
CDK2, CDK6 and CDK7
  protein levels of CDK2, CDK6 and CDK7 (immunoblot): without interfering protein levels of CDK2, CDK6 and CDK7

## CC(C)(C)c1cnc(CSc2cnc(NC(=O)C3CCN(CCCCCCCCSc4cccc5c4C(=O)N(C4CCC(=O)NC4=O)C5=O)CC3)s2)o1 (centres unmarked) [Compound 27, N-(5-(((5-(tert-butyl)oxazol-2-yl)methyl)thio)thiazol-2-yl)-1-(8-((2-(2,6-dioxopiperidin-3-yl)-1,3-dioxoisoindolin-4-yl)thio)octyl)piperidine-4-carboxamide]
Hut78 cells [4]; Homo sapiens, HuT78, 48 h
  IC50: 50 to 165 nM

## CN1CC[C@H](c2c(O)cc(O)c3c(=O)cc(-c4ccccc4Cl)oc23)[C@H](O)C1 [Flavopiridol]
HH tumors
  HH tumors in xenograft models: induced regression of HH tumors in vivo
RARA mRNA
  mRNA level of RARA: nor did it affect the mRNA level of RARA
RARα
  RARα protein (Western blot): did not yield upregulation of RARα

## CC(C)C[C@@H](C=O)NC(=O)[C@H](CC(C)C)NC(=O)[C@H](CC(C)C)NC(=O)OCc1ccccc1 [MG132, reference compound] (Cbz-Leu-Leu-Leu-aldehyde)
CDK9 [7]; Hut78, GT-02897 in presence or absence of MG132
  effect of MG132 on CDK9 loss induced by GT-02897: reverted the expression of CDK9 protein

## O=C1NCCc2[nH]c(-c3ccncc3)cc21 [PHA-767491, reference compound]
Hut78 cells [4]; Hut78 cells, 48-h, trypan blue
  IC50: 926 nM
CDK9 [11]
  effect of pre-treatment on degradation of CDK9 by GT-02897: significantly dampened the degradation of CDK9

## CC(C)(C)c1cnc(CSc2cnc(NC(=O)C3CCNCC3)s2)o1 [SNS-032]
HH tumors
  HH tumors in xenograft models: induced regression of HH tumors in vivo
CDK9 [11]
  effect of pre-treatment on degradation of CDK9 by GT-02897: significantly dampened the degradation of CDK9

## CC(C)(C)c1cnc(CSc2cnc(NC(=O)C3CCN(CC(=O)NCCOCCOCCOCCNc4cccc5c4C(=O)N(C4CCC(=O)NC4=O)C5=O)CC3)s2)o1 (centres unmarked) [THAL-SNS-032]
CDK9 [12]
  CDK9 protein (Western blot): induced significant loss of CDK9
CDK9 [13]
  CDK9 protein (Western blot): did not disturb CDK9 protein
Hut78 cells [14]
  killing in CTCL cells: nor did it display effective killing
